# Key:
# [1] = molecular target: Fibroblast growth factor receptor 1 (Homo sapiens, UniProt P11362); test: Selectivity interaction (KinomeScan (DiscoverX)) EUB0000229b FGFR1; conditions: at 10 µM
# [2] = molecular target: T1, Serine/threonine-protein kinase Nek10 (Homo sapiens) (UniProt Q6ZWH5); test: Selectivity interaction (KinomeScan (DiscoverX)) EUB0001079a NEK10; conditions: at 1 µM
# T1 sequence (whole entry): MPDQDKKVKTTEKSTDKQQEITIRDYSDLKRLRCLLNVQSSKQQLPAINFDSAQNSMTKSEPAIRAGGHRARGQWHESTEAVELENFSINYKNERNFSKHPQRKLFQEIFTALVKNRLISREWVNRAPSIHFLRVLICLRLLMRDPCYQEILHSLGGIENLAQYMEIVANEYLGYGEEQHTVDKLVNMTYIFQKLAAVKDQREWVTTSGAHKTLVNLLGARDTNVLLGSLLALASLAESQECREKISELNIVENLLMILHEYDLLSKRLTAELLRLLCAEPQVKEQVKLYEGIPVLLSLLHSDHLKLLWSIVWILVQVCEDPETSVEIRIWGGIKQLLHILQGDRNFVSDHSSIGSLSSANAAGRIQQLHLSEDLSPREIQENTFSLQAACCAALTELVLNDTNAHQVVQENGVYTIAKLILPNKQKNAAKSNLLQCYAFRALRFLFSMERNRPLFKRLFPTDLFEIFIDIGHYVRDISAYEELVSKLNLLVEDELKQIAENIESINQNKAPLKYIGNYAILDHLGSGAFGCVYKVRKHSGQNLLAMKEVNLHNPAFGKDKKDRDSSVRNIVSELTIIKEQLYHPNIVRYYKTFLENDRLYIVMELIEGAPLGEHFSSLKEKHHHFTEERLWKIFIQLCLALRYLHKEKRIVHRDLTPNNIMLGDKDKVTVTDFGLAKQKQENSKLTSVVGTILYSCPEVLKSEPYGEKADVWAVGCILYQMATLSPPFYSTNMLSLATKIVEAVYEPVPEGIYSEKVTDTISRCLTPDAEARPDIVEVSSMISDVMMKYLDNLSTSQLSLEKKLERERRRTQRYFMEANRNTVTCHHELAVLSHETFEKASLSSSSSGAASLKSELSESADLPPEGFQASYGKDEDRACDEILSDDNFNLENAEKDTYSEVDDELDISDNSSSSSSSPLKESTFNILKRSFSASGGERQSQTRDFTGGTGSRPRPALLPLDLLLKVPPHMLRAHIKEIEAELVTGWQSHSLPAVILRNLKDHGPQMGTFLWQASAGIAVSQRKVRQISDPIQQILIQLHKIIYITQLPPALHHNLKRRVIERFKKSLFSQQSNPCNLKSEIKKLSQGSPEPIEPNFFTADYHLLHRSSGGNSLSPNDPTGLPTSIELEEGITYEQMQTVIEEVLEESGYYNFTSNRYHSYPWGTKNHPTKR
# [3] = molecular target: T2, Receptor-interacting serine/threonine-protein kinase 1 (Homo sapiens) (UniProt Q13546); test: Selectivity interaction (KinomeScan (DiscoverX)) EUB0001049a RIPK1; conditions: at 1 µM
# T2 sequence (whole entry): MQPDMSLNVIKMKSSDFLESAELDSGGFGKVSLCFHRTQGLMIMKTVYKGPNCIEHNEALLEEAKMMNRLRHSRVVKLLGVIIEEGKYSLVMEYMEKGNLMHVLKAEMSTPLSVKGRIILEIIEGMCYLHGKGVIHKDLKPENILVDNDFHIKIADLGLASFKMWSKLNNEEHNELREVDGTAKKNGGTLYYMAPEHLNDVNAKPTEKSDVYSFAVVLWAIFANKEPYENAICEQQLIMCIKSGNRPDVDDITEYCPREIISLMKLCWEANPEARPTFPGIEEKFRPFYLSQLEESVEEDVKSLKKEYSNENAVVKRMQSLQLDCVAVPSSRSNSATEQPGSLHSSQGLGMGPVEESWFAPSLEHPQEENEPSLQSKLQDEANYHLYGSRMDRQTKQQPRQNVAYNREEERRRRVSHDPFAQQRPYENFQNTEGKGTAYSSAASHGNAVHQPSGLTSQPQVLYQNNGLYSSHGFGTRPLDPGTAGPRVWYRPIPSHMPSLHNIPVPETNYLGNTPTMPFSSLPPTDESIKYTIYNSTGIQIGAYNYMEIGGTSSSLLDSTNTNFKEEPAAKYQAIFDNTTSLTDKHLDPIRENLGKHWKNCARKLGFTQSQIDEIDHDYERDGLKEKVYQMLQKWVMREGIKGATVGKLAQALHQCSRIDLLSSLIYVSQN
# [4] = molecular target: Serine/threonine-protein kinase PAK 4 (Homo sapiens, UniProt O96013); test: Selectivity interaction (KinomeScan (DiscoverX)) EUB0000595a PAK4; conditions: at 10 µM
# Sequence of Serine/threonine-protein kinase PAK 4 (O96013 whole entry, looked up): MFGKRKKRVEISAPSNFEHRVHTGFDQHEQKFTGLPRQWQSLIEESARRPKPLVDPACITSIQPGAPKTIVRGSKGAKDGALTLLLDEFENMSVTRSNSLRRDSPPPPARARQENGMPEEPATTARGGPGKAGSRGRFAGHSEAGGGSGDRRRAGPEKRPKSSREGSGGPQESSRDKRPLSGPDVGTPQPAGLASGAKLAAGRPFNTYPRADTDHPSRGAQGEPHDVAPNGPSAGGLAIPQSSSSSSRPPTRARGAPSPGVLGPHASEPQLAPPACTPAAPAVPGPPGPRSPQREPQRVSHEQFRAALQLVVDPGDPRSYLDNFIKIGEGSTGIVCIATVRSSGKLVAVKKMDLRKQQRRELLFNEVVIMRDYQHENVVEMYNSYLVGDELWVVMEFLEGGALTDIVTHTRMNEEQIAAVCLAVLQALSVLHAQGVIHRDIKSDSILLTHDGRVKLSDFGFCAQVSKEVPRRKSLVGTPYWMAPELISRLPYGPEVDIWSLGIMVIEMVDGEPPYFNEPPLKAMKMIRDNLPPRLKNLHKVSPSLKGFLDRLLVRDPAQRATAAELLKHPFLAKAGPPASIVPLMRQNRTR
# Sequence of Fibroblast growth factor receptor 1 (P11362 22-822 limits assumed): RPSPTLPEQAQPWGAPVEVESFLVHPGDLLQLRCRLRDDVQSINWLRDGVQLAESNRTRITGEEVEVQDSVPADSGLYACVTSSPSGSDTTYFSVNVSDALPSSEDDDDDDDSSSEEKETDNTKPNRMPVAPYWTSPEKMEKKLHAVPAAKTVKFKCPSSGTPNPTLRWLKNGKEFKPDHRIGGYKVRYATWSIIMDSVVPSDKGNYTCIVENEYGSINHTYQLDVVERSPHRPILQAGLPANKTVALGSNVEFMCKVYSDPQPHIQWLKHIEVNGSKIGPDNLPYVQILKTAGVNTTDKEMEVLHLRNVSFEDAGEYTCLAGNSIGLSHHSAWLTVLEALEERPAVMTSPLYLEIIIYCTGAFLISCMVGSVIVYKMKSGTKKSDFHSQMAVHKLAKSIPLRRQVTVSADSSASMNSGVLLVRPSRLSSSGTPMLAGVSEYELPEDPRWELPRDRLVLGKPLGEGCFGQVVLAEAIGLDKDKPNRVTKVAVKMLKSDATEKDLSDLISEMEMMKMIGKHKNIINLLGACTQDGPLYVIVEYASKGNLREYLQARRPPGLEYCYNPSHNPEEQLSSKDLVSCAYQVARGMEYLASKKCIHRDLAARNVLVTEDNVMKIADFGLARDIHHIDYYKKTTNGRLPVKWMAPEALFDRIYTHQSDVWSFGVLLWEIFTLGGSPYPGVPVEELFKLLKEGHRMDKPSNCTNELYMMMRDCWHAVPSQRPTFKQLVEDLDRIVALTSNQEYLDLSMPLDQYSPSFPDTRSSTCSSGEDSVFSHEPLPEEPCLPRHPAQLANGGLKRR
structure (smiles),measurement,setting,value
COc1cc(N(C)c2ccnc3ccc(C(F)(F)F)cc23)cc(OC)c1OC,% binding,[1],99%
Nc1cnc(N2CCc3cc(S(=O)(=O)Nc4c(F)cc(Cl)cc4F)cc(N4CCCC4=O)c32)nc1 [TP-020n],% of control,[2],100%
COc1cc(Nc2nc(C)cc(-c3cnn4nc(OC)ccc34)n2)cc(C(F)(F)F)c1,% of control,[3],93%
COCC(=O)NC/C=C/c1ccc2ncnc(Nc3ccc(Oc4ccc(C)nc4)c(C)c3)c2c1 [CP-724714],% of control,[4],87%
